Data from US20240024317A1, “CANCER TREATMENT USING BOSENTAN IN COMBINATION WITH A CHECKPOINT INHIBITOR” (Materia Therapeutics Inc., priority 2020, published 2024).

Columns and labels:
Format in all cases: in vivo, mice
[1] = tested on: K7M2 wt tumors; assay: Tumor growth in osteosarcoma model, ketotifen, doxorubicin, anti-PD-L1; details: for tumor growth: monotherapy
Description: (§1) A fibrosarcoma syngeneic tumor model was generated by subcutaneous implantation of 2.5×10^5 MCA205 cells in 50 μL of serum-free medium into the flank of 6-week old C57BL/6 female mice. A osteosarcoma syngeneic tumor model was generated by implanting K7M2 wt tumor chunks into the fat pad of 6-week old BALB/c female mice.
(§2) Mice bearing sarcoma tumors were pre-treated with 10 mg/kg daily ketotifen followed by three or four doses of doxorubicin and/or an immune checkpoint inhibitor anti-PD-L1 antibody. Mouse monoclonal anti-PD-L1 (B7-H1, clone 10F.9G2, BioXCell) was used. Doxorubicin hydrochloride was prepared as a ready-made solution of 2 mg/ml. Anti-PD-L1 antibody was administered at a final dose of 10 mg/kg and doxorubicin at 5 mg/kg.
(§3) Primary tumors were resected and stored when they reached an average size of 700 mm^3 on day 16 and mice were monitored for re-challenge experiments. Similarly, K7M2 wt tumors were pretreated with daily ketotifen 10 mg/kg or equal volume of diluent (control group) once the average tumor size reached 80 mm^3 (day 18) and continued until completion of neoadjuvant treatment. Doxorubicin and anti-PD-L1 combination treatment started when tumors reached an average size of 150 mm^3 (day 22) and repeated on day 25, 28 and 31. Study ended when tumors reached a mean volume of 550 mm 3 (day 33). Mice were sacrificed and tumors were collected for ex vivo analysis.

[2] = tested on: MCA205 tumors; assay: Tumor growth in fibrosarcoma model, ketotifen, doxorubicin, anti-PD-L1; details: for tumor growth: monotherapy
Description: as §1, §2
Mice bearing MCA205 tumors were pretreated with daily ketotifen 10 mg/kg or equal volume of diluent (control group) once the average tumor size reached 40 mm^3, prior to the neoadjuvant treatment. Doxorubicin and anti-PD-L1 combination treatment initiated when tumors reached an average size of 150 mm^3 (day 7) and was administered as i.p. injections every three days (day 7, 10, and 13) for three doses. Daily ketotifen continued until completion of doxorubicin-anti-PD-L1 combination treatment.
as §3

[3] = tested on: MCA205 tumors; assay: Contrast-enhanced ultrasound of vascular and functional perfusion, ketotifen; details: during ketotifen treatment
Description: (§4) Vascular perfusion and functional perfusion were measured simultaneously during the course of ketotifen treatment, using contrast-enhanced ultrasound in mice bearing MCA205 and mice bearing K7M2 wt tumors.

[4] = tested on: K7M2 wt tumors; assay: as above; details: during ketotifen treatment
Description: as §4

[5] = tested on: MCA205 fibrosarcoma tumors; assay: Shear wave elastography of tumor elastic modulus, ketotifen
Description: The mechanotherapeutic potential of ketotifen in reducing matrix stiffness was primarily assessed non-invasively and longitudinally using ultrasound elastography. Assessment of tumor elastic modulus was […] via shear wave elastography using a Philips EPIQ Elite Ultrasound scanner with an eL 18-4 linear array.

[6] = tested on: MCA205 tumors; assay: Interstitial fluid pressure (IFP), wick-in-needle technique, ketotifen
Description: Interstitial fluid pressure (IFP) was measured in vivo using the “wick-in-needle” technique after mice were anesthetized with i.p. injection of Avertin and prior to tumor excision. Additional information regarding the wick-in-needle technique is described in Dong et al., Involvement of mast cell chymase in burn wound healing in hamsters 2013; 5:643-7 and Shankaran et al. IFNγ and lymphocytes prevent primary tumour development and shape tumour immunogenicity 2001; 410:1107-11, the contents of which are incorporated herein by reference in their entirety.

[7] = anti-PD-L1 (10 mg/kg) and/or doxorubicin (5 mg/kg) combined with 10 mg/kg daily ketotifen

Row | SMILES | tumor growth [1] | tumor growth [2] | functional perfusion [3] | vascular perfusion [3] | functional perfusion [4] | vascular perfusion [4] | Young's modulus ([5]; 10 mg/kg ketotifen) [kPa] | tissue stiffness (ultrasound elastography) ([5]; 10 mg/kg ketotifen compared with other doses) | antitumor response [1, 7] | antitumor response [2, 7] | IFP ([6]; 10 mg/kg dose of ketotifen compared with other doses) | IFP ([6]; all doses of ketotifen, daily for 7 days)
1 | COc1cccc2c1C(=O)c1c(O)c3c(c(O)c1C2=O)C[C@@](O)(C(=O)CO)C[C@@H]3O[C@H]1C[C@H](N)[C@H](O)[C@H](C)O1 [doxorubicin] | Neither anti-PD-L1 nor doxorubicin monotherapies significantly affected tumor growth | Neither anti-PD-L1 nor doxorubicin monotherapies significantly affected tumor growth | – | – | – | – | – | – | – | – | – | –
2 | CN1CCC(=C2c3ccccc3CC(=O)c3sccc32)CC1 [ketotifen] | no antitumor effect | no antitumor effect | significant increase | significant increase | significant increase | significant increase | 20 | reduced tissue stiffness the most | induced a significant antitumor response | induced a significant antitumor response | greatest effect | reduced the IFP
